From patent US11312705B2, “Heteroaryl[4,3-C]pyrimidine-5-amine derivative, preparation method therefor, and medical uses thereof” (Jiangsu Hengrui Medicine Co., Ltd., priority 2017, dated 2022)

What was measured:
[1] = molecular target: adenosine A2a receptor (A2aR) (Homo sapiens (Human), UniProt P29274); test: Inhibition of adenosine A2a receptor cAMP signaling pathway (HTRF cAMP, CHO-K1/A2aR cells); type: cell-based
Outline: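 CHO-K1 cells expressing human A2aR, preincubated 30 min at room temperature with compound (10000–0.001024 nM final) in HEPES/BSA buffer with rolipram and adenosine deaminase, then stimulated 30 min with […] (20 nM final). Intracellular cAMP read by HTRF after 1 h lysis/detection.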

[2] = Brain permeability in mice (plasma/brain concentration plus equilibrium dialysis); type: in vivo; conditions: mouse, not told, po; female C57 mice, 20 mg/kg intragastric, 0.5 h after administration; read-out: Blood-brain permeability index (Kp-unbound)
Protocol: The brain permeability of the compounds of the present invention in mice was determined by the following experimental method:
Four female C57 mice were maintained on a 12 hours light/12 hours dark cycle, in a constant temperature of 24±3° C. and a humidity of 50-60%, and had free access to food and water. The compounds were administered intragastrically to the mice after fasting overnight. The administration dosage was 20 mg/kg. The drug administration group was sacrificed after blood collection at 0.5 h after drug administration (collected blood volume: 0.5 ml). The blood sample was stored in heparinized tubes, and centrifuged for 10 minutes at 3500 rpm to separate the plasma, which was marked as plasma 1 and stored at −80° C. […]
The equilibrium dialysis tube of RED Device Inserts was inserted into a 96-well plate. […] The chromatographic peak area ratios of the total drug (plasma chamber) and the free drug (buffer chamber) to the internal standard were determined directly by the LC/MS/MS method established above respectively, and the free percent (fuplasma%) was calculated. […]
5.1 The drug concentrations in plasma 1 and brain tissue 1 of mice 0.5 h after drug administration were determined by the established LC/MS/MS method respectively, which were the total concentration (Ctotal, p and Ctotal, b); […]

adenosine A2a receptor (A2aR), sequence (P29274 whole entry): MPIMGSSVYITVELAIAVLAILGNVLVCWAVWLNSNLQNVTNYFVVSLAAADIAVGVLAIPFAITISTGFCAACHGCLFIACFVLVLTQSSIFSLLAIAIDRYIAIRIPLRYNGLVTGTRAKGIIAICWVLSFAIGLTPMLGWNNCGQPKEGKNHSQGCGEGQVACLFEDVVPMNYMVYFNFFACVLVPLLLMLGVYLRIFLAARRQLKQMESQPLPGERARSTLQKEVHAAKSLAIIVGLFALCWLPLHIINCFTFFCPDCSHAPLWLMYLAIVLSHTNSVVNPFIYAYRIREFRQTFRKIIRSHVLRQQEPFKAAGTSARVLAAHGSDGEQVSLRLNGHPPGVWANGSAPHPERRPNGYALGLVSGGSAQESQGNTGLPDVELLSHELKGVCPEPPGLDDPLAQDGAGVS

Row | IC50 ([1]; Table 1, ethyl carbazole 20 nM) [nM] | IC50 ([1]; Table 2, ethyl carbazole 20 nM) [nM] | IC50 ([1]; Table 3, ethyl carbazole 20 nM) [nM] | Kp at 0.5 h [2] | SMILES
1 | 3.96 | 3.96 | 0.75 | 0.01 | Cc1cc(-c2c(-c3ccc(F)cc3F)nc(N)n3cnnc23)cc(C(F)(F)F)n1 [Example 18, 7-(2,4-Difluorophenyl)-8-(2-methyl-6-(trifluoromethyl)pyridin-4-yl)-[1,2,4]triazolo[4,3-c]pyrimidin-5-amine]
2 | 2.33 | 2.33 | 2.33 | 0.015 | Cc1cc(-c2c(-c3ccc(F)cc3F)nc(N)n3cnnc23)cc(C(F)F)n1 [Example 20, 8-(2-(Difluoromethyl)-6-methylpyridin-4-yl)-7-(2,4-difluorophenyl)-[1,2,4]triazolo[4,3-c]pyrimidin-5-amine]
